“Also recorded” adds a separate entry of the source.
Columns and labels:
HCC1954 cells = assay: MTT assay, cell viability of HCC1954 cells; type: cell-based, human; conditions: repertaxin 100 nM, antibodies 10 μg/ml
Excerpt: (§1) Cell viability. […] Nuclei were counterstained with DAPI/antifade (Invitrogen).

[1] = system: ALDEFLUOR-positive population of MDA-MB-453; assay: ALDEFLUOR assay on MDA-MB-453 cells in vitro; type: cell-based, human; conditions: three days, repertaxin 100 nM, antibodies 10 μg/ml
Protocol: ALDEFLUOR assay. […] In order to eliminate cells of mouse origin from the xenotransplanted tumors, cell population was stained with an anti-H2Kd antibody (BD biosciences, 1/200, 20 min on ice) followed by staining with a secondary antibody labeled with phycoerythrin (PE) (Jackson labs, 1/250, 20 min on ice).

[2] = system: CXCR1-positive, CXCR1-negative and unsorted populations of SUM159 cells; assay: MTT assay on flow sorted CXCR1-positive, CXCR1-negative and unsorted populations; type: cell-based, human; conditions: for cell viability of the unsorted / unseparated population: SUM159 cells
Protocol: as §1
Flow cytometry analysis. […] CD95/FAS staining were performed utilizing an anti-CD95 labeled APC (1:20, BD biosciences). […] Fresh cells were stained with 1 μg/ml PI (Sigma) for 5 min for viability.

[3] = system: normal mammary epithelial cells; assay: Mammosphere formation by normal mammary epithelial cells; type: cell-based, human; conditions: repertaxin 100 nM for four to fifteen days adherent, then suspension
[4] = system: FAK Tyr397 and AKT Ser473 phosphorylation; assay: Western blotting of FAK/AKT activation in SUM159; type: cell-based, human; conditions: 100 nM, two days
Protocol: (§2) Western blotting. Cells were lysed in a laemmli buffer and loaded onto SDS-polyacrylamide gels. Blots were incubated with the respective primary antibodies diluted in TBST (containing 0.1% Tween20 and 2% BSA) either overnight at 4o, or 2 hours at room temperature. Blots were washed and incubated with appropriate secondary antibodies (GE Healthcare, UK) and detected using SuperSignal West Pico Chemiluminescent Substrate (Pierce).

[5] = system: FAK Tyr397 and AKT Ser473 phosphorylation; assay: Western blotting of FAK/AKT activation in MDA-MB-453; type: cell-based, human
Protocol: as §2

HCC1954 PTEN-siRNA cells = assay: Repertaxin on HCC1954 PTEN-siRNA cells (western, MTT); type: cell-based, human
Protocol: as §1, §2
Virus infection. […] All lentiviral constructs were prepared by the University of Michigan Vector. An adenoviral construct for the overexpression of FAK (Ad-FAK-GFP) was also utilized (Luo et al. Cancer Res. 69:466-474, herein incorporated by reference in its entirety). Cells infection with different vectors was performed as previously described (Charafe-Jauffret et al. Cancer Res. 69:1302-1313, herein incorporated by reference in its entirety). Efficiency of infection was verified by measuring the percentage of DsRed or GFP expressing cells.

[6] = system: cells from primary tumors SUM159, MC1, UM2, UM3; assay: Re-implantation of cells from treated tumors into secondary mice; type: in vivo, NOD/SCID mice; conditions: for secondary tumor formation / regrowth from serial dilutions of treated primary tumors: secondary NOD/SCID mice, no further treatment
Protocol: Animal model. […] Cells from these tumors were transplanted orthotopically in the humanized cleared fat-pad of NOD/SCID mice, without cultivation in vitro. […] 50,000 cells from each xenotransplants were injected in the humanized fat pad of NOD/SCID mice and monitored the tumor growth. […] The animals were euthanized when the tumors were approximately 1.5 cm in the largest diameter, to avoid tumor necrosis and in compliance with regulations for use of vertebrate animal in research. A portion of each fat pad injected was fixed in formalin and embedded in paraffin for histological analysis. The rest of the tumor cells were re-implantated into secondary NOD/SCID mice. […]

FOXO3A = assay: Immunohistochemistry of FOXO3A in xenotransplants; parameters: species or system NOD/SCID mice; conditions: mouse, in vivo
Protocol: Immunostaining. For immunofluorescent staining, sorted CXCR1-positive cells were fixed with 95% methanol at −20° C. for 10 minutes. Cells were rehydrated in PBS and incubated with respective antibodies at room temperature for 1 hour. Primary antibodies used were P-FAK (1:50, Cell Signaling Technology), P-AKT (1:300, Cell Signaling Technology), and FOXO3a (1:250, Cell Signaling Technology). Slides were then washed and incubated 30 minutes with PE conjugated secondary antibodies (Jackson labs). The nuclei were counterstained with DAPI/antifade (Invitrogen) and coverslipped. […] Immunohistochemistry for the detection of ALDH1 (1:100, BD biosciences), P-FAK, P-AKT, FOXO3a expression was done on paraffin section (Ginestier et al. Am. J Pathol. 161:1223-1233, herein incorporated by reference in its entirety). Staining was done utilizing the Histostainplus kit (Zymed laboratories). Diaminobenzidine (DAB) or 3-amino-9-ethylcarbazole (AEC) was used as chromogen and sections were counterstained with hematoxylin.

Compound: CC(C)Cc1ccc([C@@H](C)C(=O)NS(C)(=O)=O)cc1 [Repertaxin]
- cell viability (MTT) (HCC1954 cells): decrease in cell viability was observed after 3 days of treatment; also recorded: significant reduction
- ALDEFLUOR-positive population [1]: np any effect
- cell viability of the unsorted / unseparated population [2]: massive cell death
- cell viability of the unsorted / unseparated population ([2]; listed as repertaxin): decrease in cell viability
- cell viability of the CXCR1-negative population ([2]; sorted SUM159 cells): no effect
- cell viability of the CXCR1-positive population ([2]; sorted SUM159 cells): decreased cell viability
- cell viability of the CXCR1-positive population ([2]; sorted SUM159 cells, listed as repertaxin): decrease in cell viability
- mammosphere formation by normal mammary epithelial cells [3]: significantly decreased mammosphere formation; also recorded: significant decrease of mammosphere-initiating cells
- FAK Tyr397 and AKT Ser473 phosphorylation (western blot) [4]: decrease in FAK Tyr397 and AKT Ser473 phosphorylation
- FAK Tyr397 and AKT Ser473 phosphorylation (western blot) ([4]; listed as repertaxin): decrease in FAK Tyr^397 and AKT Ser^473 phosphorylation
- FAK Tyr397 and AKT Ser473 phosphorylation (western blot) [5]: No modification
- FAK and AKT activity in HCC1954 PTEN-siRNA cells (western blot) (HCC1954 PTEN-siRNA cells; 100 nM, two days): PTEN deletion blocked the effect of repertaxin treatment
- cell viability (MTT) of HCC1954 PTEN-siRNA cells (HCC1954 PTEN-siRNA cells; 3 days of treatment): developed resistance to repertaxin
- reduction in tumor growth in secondary mice compared to cells from control or docetaxel-treated animals ([6]; equal numbers of cells injected): 2-5 fold
- Tumors/Injections ([6]; number of cells injected 100): 0/9
- Tumors/Injections ([6]; number of cells injected 250): 0/2
- Tumors/Injections ([6]; number of cells injected 500): 1/3
- Tumors/Injections ([6]; number of cells injected 1,000): 4/8
- Tumors/Injections ([6]; number of cells injected 2,500): 2/2
- Tumors/Injections ([6]; number of cells injected 5,000): 2/2
- Tumors/Injections ([6]; number of cells injected 10,000): 4/4
- secondary tumor formation / regrowth from serial dilutions of treated primary tumors [6]: reduced tumor growth in secondary recipients; also recorded: only higher numbers of cells
- secondary tumor formation / regrowth from serial dilutions of treated primary tumors ([6]; listed as Reperatxin): delayed secondary tumors which were significantly smaller in size
- nuclear FOXO3A in treated tumors (FOXO3A): detected
